One assay has as its system DC2.4 cells. The format is cell-based.
The target of assay [1] is H-2K^b (K^b heavy chain with β2-microglobulin), recombinant, refolded (mouse | not stated). The assay can be described thus: circular dichroism thermal denaturation.
A short description of assay [2]: Immunogenicity in preliminary experiments. The settings on record: data not shown.
For assay [3], the system named is brain-derived CD8 T cells. The assay can be described thus: IFN-γ intracellular cytokine staining of brain-derived leukocytes. It is filed as cell-based, C57BL/6 (B6) mice. The conditions noted are these: brain-derived cells of rJ-infected mice, day 7 p.i.
Assay [4] has as its system brain-derived CD8 T cells. The conditions noted are these: ref [14]; cited from earlier work.

As for CSLWNGPHL [Epitope S510], the “detection of peptide eluted from MHC complexes” value in the assay on DC2.4 cells is recorded as “neither peptide was detectable”. Regarding “Q600F peptide (heteroclitic S598 analogue), Aba-modified (from UniProt P22432 598-605)”, in assay [1], the Tm of the K^b/peptide complex came to 62.7 °C. Turning to RCEIFANI [Epitope Q600E], in assay [2], the immunogenicity result is “not immunogenic”. In the case of RCYIFANI [Epitope Q600Y], in assay [3], the “fraction of S598-primed CD8 T cells recognizing the variant peptide” value is recorded as “only a small fraction”. Moreover, in assay [4], the “fraction of responding T cells that recognized only the variant epitope” value is ~ 35%. For the substance “S598 peptide (native epitope), Aba-modified”, the Tm of the K^b/peptide complex in assay [1] was determined as 56.2 °C. Consider TSYKFESV [Epitope B8_20-27], for which the “level of VacV-derived control peptide” value in the assay with DC2.4 cells is listed as “equivalently high levels”.

(Values after PMC4052115 (Journal of immunology (Baltimore, Md. : 1950), 2014).)
